# Source: patent US11564388B2, “Supercooling methods for preservation of biological samples” (X-Therma, Inc., priority 2017, dated 2023)
# “Also recorded” adds a separate entry of the source.
# Tests used:
# [1] = Crystallographic x-ray diffraction (XRD) ice formation assay; type: physicochemical; details: for reduction of necessary EG concentration while preventing ice formation (ice ring scores): XRD, EG 15-30% (v/v), peptoid 1 and 5 mg/mL
# Experimental: In order to increase the throughput of library analysis, a crystallographic x-ray diffraction (XRD) technique was used to evaluate ice crystal formation. For these experiments, the compounds named “Compound 2,” “Compound 8,” “Compound 10,” “Compound 11,” “Compound 12,” “Compound 13,” and “Compound 58” were tested. Compound 58 is similar to Compound 12, except that an arginine amino acid has been appended to the N-terminal end.
# For these experiments, EG concentrations between 15% and 30% (v/v) were used. Typically, EG, DMSO, and other cryoprotectants are used during XRD sample analysis at concentrations of 35-40% (v/v) to vitrify solutions and avoid diffraction interference from ice crystals. Concentrations of 1 and 5 mg/mL of the peptoid and peptoid-peptide compounds were used. FIGS. 3A, 3B, and 3C illustrate exemplary XRD data under conditions of complete vitrification, partial vitrification with the presence of cubic ice, and freezing ([…]), respectively. FIG. 3D provides ice rings scores for a variety of EG concentrations and two concentrations of Compounds 2, 8, and 12.
# “IceRing1” and “IceRing2” refer to ice formation scores, which range between 0 (no ice formation) and 15 (large ice formation).
# The sample containing Compound 12 at a concentration of 5 mg/mL (0.5% (w/v)) and EG at a concentration of 17.5% (v/v) in water was ice-free after flash freezing. […] In the figures, black spots and rings represent ice crystals.
# [2] = Larger volume flash freeze, rewarming and −20° C. storage assay; type: physicochemical; details: 22.5% EG
# Experimental: In order to test the usefulness of compositions of the present invention at larger scales, experiments were performed using solution volumes that are similar to volumes used for standard egg and stem cell preservation. For these experiments, two samples, one containing 22.5% EG and buffer only, and another containing 22.5% EG and 5 mg/ml (0.5% w/v) of Compound 12 and buffer, were flash frozen in liquid nitrogen. […] The rewarming of the solutions in a 37° C. water bath led to an unexpected and beneficial result. The Compound 12 solution bypassed devitrification in less than 2 seconds upon rewarming (FIG. 6B, right), whereas chunks of ice were seen floating in the control sample (FIG. 6B, left) after 20 seconds. Condensation was seen on each of the tubes because the tubes were actually still much below room temperature.
# [3] = tested on: HEK 293 cell line; assay: Cytotoxicity assay (MTT); type: cell-based, human
# Experimental: A Tecan Genesis Robotic Workstation was used to prepare solutions in 96- and 384-well plates. Solutions contained culture media, buffers, a cryoprotectant composition of the present invention (Compound 12) or DMSO. Solutions were adjusted to the desired pH. Serial dilutions were performed to obtain solutions containing various concentrations of Compound 12 and DMSO. Control experiments were performed using only culture media.
# For these experiments, cells were seeded at low density (i.e., 10% confluence), exposed to solutions containing Compound 12 or DMSO, and placed in a 37° C. incubator. The cells were allowed to grow until control cells that were treated only with empty vehicle approached 70% confluence (typically about 3 to 5 days). Assessment for compound cytotoxicity was via MTT assay.
# [4] = tested on: HEK 293 cells; assay: Cryopreservation assay, flash freezing in liquid nitrogen, Calcein AM viability; type: cell-based, human
# Experimental: Initial cryopreservation assays were performed using very simple solutions, with and without the addition of Compound 12, in order to minimize confounding outside factors. For this first set of experiments, two sample solutions were prepared. The first sample solution contained simple buffer and ethylene glycol (EG) at a concentration of 22.5% (v/v), and the second sample solution contained simple buffer, EG (22.5% (v/v)), and 5 mg/mL (0.5% (w/v)) of Compound 12.
# HEK 293 cells were grown until 70% confluent, then treated with trypsin to remove adhesion proteins and yield free floating cells. Cells were counted using a hemocytometer and sample cell concentrations were adjusted to final concentrations of 10,000 cells per microliter. Cells were then compressed into tight pellets by centrifugation, and each sample was subsequently mixed with 20 μL of one of the sample solutions. Samples were then flash frozen by immersion in liquid nitrogen, followed by rewarming in a 37° C. water bath. After the freeze-thaw process, cells were suspended in a 400× volume of culture media for recovery. The positive control sample was treated with culture media at 37° C. and not subjected to the freeze-thaw process. The negative control sample was treated with culture media only during the freeze-thaw process. After recovery, cells were stained with Calcein AM for 30 minutes and cell viability was measured using a fluorescence plate reader.
# A second set of experiments was performed to evaluate the cryopreservation potential of a formulation that contained 5 mg/mL of Compound 12 plus a mixture of glycols, disaccharides, and a general buffer. Post-thaw survival following vitrification in liquid nitrogen was evaluated as described above.
# [5] = MilliQ water, slow cooled, −20° C., one hour; peptoid 9 mM, EG 160 mM
# Experimental: In this experiment, four water-based samples were prepared in capillary tubes containing MilliQ purified water. One sample contained only water, and another sample contained 160 mM ethylene glycol (EG). The other two samples each contained a peptoid polymer at 9 mM. One of the peptoid polymer samples contained the peptoid polymer called “Compound 1,” while the other sample contained the peptoid polymer called “Compound 10.” The sequences of the peptoid polymers are as follows:
# After sample preparation, all samples were slow cooled and incubated at −20° C. on a Peltier cooled plate. After one hour, samples were removed and immediately photographed using a digital camera attached to a 180× Stereo Zoom microscope (FIG. 2A).
smiles,measurement,setting,value
"CCC(C)NCC(=O)N(CC(=O)N(CC(=O)N(CC(=O)N(CC(=O)N(CC(=O)N(CC(=O)N(CC(=O)N(CC(=O)N(CC(N)=O)CC(C)O)C(C)CC)C(C)CC)C(C)CC)CC(C)O)CC(C)O)CC(C)O)C(C)CC)C(C)CC (stereo not drawn) [Compound 2, Nsb-Nsb-Nsb-Nhp-Nhp-Nhp-Nsb-Nsb-Nsb-Nhp]",reduction of necessary EG concentration while preventing ice formation (ice ring scores),[1],significantly reduced necessary EG concentrations while preventing ice formation
"CCC(C)NCC(=O)N(CC(=O)N(CC(=O)N(CC(=O)N(CC(=O)N(CC(=O)N(CC(=O)N(CC(=O)N(CC(=O)N(CC(N)=O)CC(C)O)CC(C)O)CC(C)O)C(C)CC)CC(C)O)CC(C)O)CC(C)O)CC(C)O)CC(C)O (stereo not drawn) [Compound 8, Nsb-Nhp-Nhp-Nhp-Nhp-Nhp-Nsb-Nhp-Nhp-Nhp]",reduction of necessary EG concentration while preventing ice formation (ice ring scores),[1],significantly reduced necessary EG concentrations while preventing ice formation
"CCC(C)NCC(=O)N(CC(=O)N(CC(=O)N(CC(=O)N(CC(=O)N(CC(=O)N(CC(=O)N(CC(=O)N(CC(=O)N(CC(N)=O)C(C)CC)C(C)CC)CC(C)O)CC(C)O)C(C)CC)C(C)CC)CC(C)O)CC(C)O)C(C)CC (stereo not drawn) [Compound 12, Nsb-Nsb-Nhp-Nhp-Nsb-Nsb-Nhp-Nhp-Nsb-Nsb]",ice formation after flash freezing,"[1]; 5 mg/mL (0.5% (w/v)) with EG 17.5% (v/v) in water, stream of liquid nitrogen vapor",ice-free
same,anti-icing effect in comparison to EG at the same molar concentration,[1]; 5 mg/mL with EG 17.5% (v/v),500 times
same,reduction of necessary EG concentration while preventing ice formation (ice ring scores),[1],significantly reduced necessary EG concentrations while preventing ice formation
same,vitrification on flash freezing in liquid nitrogen,"[2]; buffer, 5 mg/ml (0.5% w/v)",complete vitrification with no ice formation; also recorded: vitrified
same,state after overnight in −20° C. freezer,"[2]; 100 μL, 5 mg/ml",remained unfrozen
same,toxicity at the concentration that prevents ice formation,[3]; 0.5% w/v,did not show toxicity
same,toxicity at four times the ice-preventing concentration,[3]; four times greater than 0.5% w/v,did not show significant toxicity
same,toxicity compared with culture media alone,"[3]; serial dilutions, 37° C., about 3 to 5 days",did not significantly deviate from the that of culture media alone
same,vitrification of the cell sample during the freezing process,"[4]; buffer, EG 22.5% (v/v), 5 mg/mL, liquid nitrogen",complete vitrification without ice formation
same,cell survival compared with EG alone,"[4]; buffer, EG 22.5% (v/v), 5 mg/mL, viability 12 hours post-thaw",greatly improved cell survival
same,post-thaw survival of the cells,"[4]; vitrified with liquid nitrogen, viability 16 hours post-thaw, Compound 12 at 5 mg/mL plus glycols, disaccharides, general buffer",98%
"C[S+](C)[O-] [DMSO, dimethyl sulfoxide, reference compound]",concentration at which warm survival for an extended period was not allowed,[3]; 37° C.,above 0.5 % (v/v)
"OCCO [EG, ethylene glycol]",ice crystal formation,[5],significant ice crystal formation
